Experimental data taken from paper PMC9516332 (Frontiers in Oncology, 2022).
Read-outs that look alike come from different tables or passages of the source.

Test system: 134 cancer cell lines
Test: Cell viability assay (ATPlite, 72 hours), IC50 on cancer cell line panel

CC(C)(C)c1nc(-c2cccc(NS(=O)(=O)c3c(F)cccc3F)c2F)c(-c2ccnc(N)n2)s1 [dabrafenib]
IC50 (Homo sapiens, MOLT-4, read-out: IC50 in cell proliferation assay, MOLT-4 cell line): > 10000 nM | IC50 (Homo sapiens, MV4-11, read-out: IC50 in cell proliferation assay, MV4-11 cell line (FLT3 ITD)): 8020 nM | IC50 (Homo sapiens, MeWo, read-out: IC50 in cell proliferation assay, MeWo cell line): 1020 nM | IC50 (Homo sapiens, NCCIT, read-out: IC50 in cell proliferation assay, NCC-IT cell line): 1160 nM | IC50 (Homo sapiens, NCI-H82, read-out: IC50 in cell proliferation assay, cell line NCI-H82): 1120 nM | IC50 (Homo sapiens, NCI-H460, read-out: IC50 in cell proliferation assay, NCI-H460 cell line): 1150 nM | IC50 (Homo sapiens, NCI-H661, read-out: IC50 in cell proliferation assay, NCI-H661 cell line): > 10000 nM | IC50 (Homo sapiens, NCI-H716, read-out: IC50 in cell proliferation assay, cell line NCI-H716 (FGFR2-COL14A1)): 1170 nM | IC50 (Homo sapiens, NCI-H1650, read-out: IC50 in cell proliferation assay, NCI-H1650 cell line (EGFR exon19del)): > 10000 nM | IC50 (Homo sapiens, NCI-H1975, read-out: IC50 in cell proliferation assay, NCI-H1975 cell line (EGFR p.L858R + p.T790M)): 1420 nM | IC50 (Homo sapiens, NCI-H2228, read-out: IC50 in cell proliferation assay, NCI-H2228 cell line (EML4-ALK)): 2200 nM | IC50 (Homo sapiens, OVCAR-3, read-out: IC50 in cell proliferation assay, cell line OVCAR-3): 1040 nM | IC50 (Homo sapiens, PFSK-1, read-out: IC50 in cell proliferation assay, cell line PFSK-1): > 10000 nM | IC50 (Homo sapiens, RL95-2, read-out: IC50 in cell proliferation assay, cell line RL95-2 (EGFR p.A289V)): 2990 nM | IC50 (Homo sapiens, RPMI-7951, read-out: IC50 in cell proliferation assay, cell line RPMI-7951 (BRAF p.V600E)): 43 nM | IC50 (Homo sapiens, RS4-11, read-out: IC50 in cell proliferation assay, cell line RS4;11): 1210 nM | IC50 (Homo sapiens, Rec1, read-out: IC50 in cell proliferation assay, cell line REC-1): 975 nM | IC50 (Homo sapiens, SHP77, read-out: IC50 in cell proliferation assay, cell line SHP-77): > 10000 nM | IC50 (Homo sapiens, SK-BR-3, read-out: IC50 in cell proliferation assay, cell line SK-BR-3 (ERBB2 amplification)): 1570 nM | IC50 (Homo sapiens, SK-N-AS, read-out: IC50 in cell proliferation assay, cell line SK-N-AS): 3020 nM | IC50 (Homo sapiens, SK-N-FI, read-out: IC50 in cell proliferation assay, cell line SK-N-FI): > 10000 nM | IC50 (Homo sapiens, SK-N-MC, read-out: IC50 in cell proliferation assay, cell line SK-N-MC): 1780 nM | IC50 (Homo sapiens, SK-N-SH, read-out: IC50 in cell proliferation assay, cell line SK-N-SH (ALK p.F1174L)): 2140 nM | IC50 (Homo sapiens, SNU-5, read-out: IC50 in cell proliferation assay, cell line SNU-5 (MET amplification)): > 10000 nM | IC50 (Homo sapiens, SNU-16, read-out: IC50 in cell proliferation assay, cell line SNU-16 (FGFR2 amplification)): > 10000 nM | IC50 (Homo sapiens, SNU-C2B, read-out: IC50 in cell proliferation assay, cell line SNU-C2B (EGFR p.R165Q)): > 10000 nM | IC50 (Homo sapiens, SU-DHL-1, read-out: IC50 in cell proliferation assay, cell line SU-DHL-1 (NPM1-ALK)): > 10000 nM | IC50 (Homo sapiens, SU-DHL-6, read-out: IC50 in cell proliferation assay, cell line SU-DHL-6): 2610 nM | IC50 (Homo sapiens, SUP-T1, read-out: IC50 in cell proliferation assay, cell line SUP-T1): > 10000 nM | IC50 (Homo sapiens, SW48, read-out: IC50 in cell proliferation assay, cell line SW48 (EGFR p.G719S)): 3010 nM | IC50 (Homo sapiens, SW480, read-out: IC50 in cell proliferation assay, cell line SW480): 2990 nM | IC50 (Homo sapiens, SW626, read-out: IC50 in cell proliferation assay, cell line SW626): > 10000 nM | IC50 (Homo sapiens, SW780, read-out: IC50 in cell proliferation assay, cell line SW780 (FGFR3-BAIAP2L1)): > 10000 nM | IC50 (Homo sapiens, SW837, read-out: IC50 in cell proliferation assay, cell line SW837): > 10000 nM | IC50 (Homo sapiens, SW872, read-out: IC50 in cell proliferation assay, cell line SW872 (BRAF p.V600E)): 25 nM | IC50 (Homo sapiens, SW900, read-out: IC50 in cell proliferation assay, cell line SW900): 1120 nM | IC50 (Homo sapiens, SW948, read-out: IC50 in cell proliferation assay, cell line SW948): 2720 nM | IC50 (Homo sapiens, SW982, read-out: IC50 in cell proliferation assay, cell line SW982 (BRAF p.V600E)): 1160 nM | IC50 (Homo sapiens, SW-620, read-out: IC50 in cell proliferation assay, cell line SW620): > 10000 nM | IC50 (Homo sapiens, T98G, read-out: IC50 in cell proliferation assay, cell line T98G): > 10000 nM | IC50 (Homo sapiens, TCC-SUP, read-out: IC50 in cell proliferation assay, cell line TCCSUP): 2080 nM | IC50 (Homo sapiens, THP-1, read-out: IC50 in cell proliferation assay, cell line THP-1): > 10000 nM | IC50 (Homo sapiens, U2OS, read-out: IC50 in cell proliferation assay, cell line U2OS): > 10000 nM | IC50 (Homo sapiens, U-87 MG, read-out: IC50 in cell proliferation assay, cell line U-87MG ATCC): 3600 nM | IC50 (Homo sapiens, U-118-MG, read-out: IC50 in cell proliferation assay, cell line U-118MG): 2210 nM | IC50 (Homo sapiens, UMUC3, read-out: IC50 in cell proliferation assay, cell line UM-UC-3): 1950 nM | IC50 (Hs766T, read-out: IC50 in cell proliferation assay, Hs 766T cell line): > 10000 nM | IC50 (L-82, read-out: IC50 in cell proliferation assay, L-82 cell line (NPM1-ALK)): > 10000 nM | IC50 (Rh30, read-out: IC50 in cell proliferation assay, cell line Rh30): > 10000 nM | IC50 (read-out: IC50 in cell proliferation assay, 11-18 cell line (EGFR p.L858R)): > 10000 nM | IC50 (read-out: IC50 in cell proliferation assay, Hs 852.T cell line): 1420 nM | IC50 (read-out: IC50 in cell proliferation assay, JAR cell line): 1530 nM | IC50 (read-out: IC50 in cell proliferation assay, cell line 5637): 562 nM | IC50 (read-out: IC50 in cell proliferation assay, cell line A-388): > 10000 nM | IC50 (read-out: IC50 in cell proliferation assay, cell line DB): 1720 nM | IC50 (read-out: IC50 in cell proliferation assay, cell line DEL (NPM1-ALK)): > 10000 nM | IC50 (read-out: IC50 in cell proliferation assay, cell line ES-2 (BRAF p.V600E)): 130 nM | IC50 (read-out: IC50 in cell proliferation assay, cell line PA-1): 1710 nM | IC50 (read-out: IC50 in cell proliferation assay, cell line PC-3): > 10000 nM | IC50 (read-out: IC50 in cell proliferation assay, cell line RD): 1790 nM | IC50 (read-out: IC50 in cell proliferation assay, cell line RKO (BRAF p.V600E)): 11 nM | IC50 (read-out: IC50 in cell proliferation assay, cell line RL): > 10000 nM | IC50 (read-out: IC50 in cell proliferation assay, cell line RT-4 (FGFR3-TACC3)): > 10000 nM | IC50 (read-out: IC50 in cell proliferation assay, cell line SR (NPM1-ALK)): 1760 nM | IC50 (read-out: IC50 in cell proliferation assay, cell line T24): 1170 nM | IC50 (read-out: IC50 in cell proliferation assay, cell line TT (RET p.C634W)): > 10000 nM | IC50 (read-out: IC50 in cell proliferation assay, cell line VA-ES-BJ): 2100 nM
